We go through two compounds from patent EP1432717B1, “SUBSTITUTED DISILOXANES, METHOD FOR THE PRODUCTION THEREOF AND THE USE THEREOF FOR REVERSAL OF MULTIDRUG RESISTANCE (MDR)” (Molnar, Jozsef, priority 2000, dated 2002).

One data set has as its system Mdr RNA Synthese. In words: PCR check of Mdr gene expression. It is filed as cell-based. As to the method:
(§1) Die Intensität der unbehandelten Mdr-Zellen entsprach der 100%-igen Effluxpumpemktivität. Bei mehrfach wiederholten unabhängigen Versuchen in Deutschland und in Ungam wurde eine Inhibition der Effluxpumpen bereits bei 40,0 ng/ml Konzentration zwischen 20-45% gefunden und bei etwa 200,0 ng/ml Konzentration eine 80%-ige Hemmung erreicht. Der 100%-ige Hemmungsbereich liegt etwa zwischen 300-800 ng/ml. Es gab zwar eine erhebliche Schwankung bei der Wiederholung, jedoch fiel immer die 100%-ige Hemmung in den Nanogramm Bereich. Bei der Überprüfung von Mdr-Gen-Expression mittels PCR wurde kein Einfluss dieser ALIS-Verbindung auf die Reduktion oder Verstärkung der Mdr RNA Synthese gefunden. Das ist deshalb günstig, weil die Mdr auch eine wichtige physiologische Rolle bei den Entgiflungsmechanismen der gesunden Zellen (z.B. Nierenzellen) spielt und nach der Beendigung der Therapie das aktive gp-170 Protein wieder produziert werden kann. Außerdem wirkt ALIS-409 auch allein cancerostatisch - und zwar gegenüber gp-170 positiv (EPG85-257RDB) Magencarcinomazellen in vitro. Es wurde die folgende Proliferationshemmung nachgewiesen: 41% bei 100 ng/ml und 74% bei 300 ng/ml.
Die methodische Überprüfung war mit dem Beispiel 3 identisch. Auch die Inhibition der Effluxpumpenaktivitäten waren ähnlich groß. Im Konzentrationsbereich 200-500 ng/ml konnte eine 100%-ige Inhibition erreicht werden. […]

Data set [1] can be described thus: In vivo toxicity test in mice. Also noted: species or system Mäuse. The conditions noted are these: for survival: mouse, in vivo, 10 mg/kg, 10,0 mg/kg, read-out: Überleben der Mäuse. The source says: Der Erfindung liegt die Aufgabe zugrunde, Verbindungen zur Verfügung zu stellen, mit denen sich die Wirksamkeit von Zytostatika verbessern lässt. Die Aufgabe wurde erfindungsgemäß durch die Bereitstellung von neuen organischen Siliciumverbindungen der Formel I gelöst. Die erfindungsgemäßen neuen substituierten Disiloxane der allgemeinen Formel I [drawing 2] enthalten folgenden Substituenten: • R^1 = Methyl, Ethyl, Phenyl oder tertiär Butyl • R^2 = X (Halogen: Cl, Br, F), CX3, (para, ortho, meta), • n = 0-1, m = 1-3 • Q = Alkyl, Cycloalkyl, sekundäres Amin, Morpholin, substituiertes Piperazin, worin [drawing 3] • R^3 = Methyl, Ethyl, Butyl, Phenyl, Benzyl, -(CH2)pSi(R^4)3 mit p = 1 - 3 und R^4 = Methyl, Ethyl bedeuten. Die erfindungsgemäß bereitgestellten Verbindungen werden durch Umsetzung von substituierten Alkyl-dichlor-silanen mit Aryl-Grignard-Verbindungen gewonnen und daraus durch acide Hydrolyse Disiloxane, die ihrerseits im Fall von Halogen-Alkylen mit Aminen umgesetzt werden. In speziellen Fällen wird Magnesium mit 4-Fluor-brombenzol umgesetzt und daraus durch Reaktion mit 3-Chlorpropyl-methyl-dichlorsilan das Zwischenprodukt 1,3-bis(4-fluorophenyl)-1,3-dimethyl-1,3-bis(3-chloropropyl)-disiloxan gewonnen. Dieses Produkt wird seinerseits mit Morpholin zu ALIS 409 oder mit 4-Butyl-piperazin zu ALIS 421 (Beispiele 2 und 3) umgesetzt. Überraschendweise hat sich herausgestellt, dass es sich bei den erfindungsgemäßen neuen substituierten Disiloxane um biologisch wirksame, nicht toxische Verbindungen handelt, die zur Umkehrung der Multidrogeresistenz (Mdr) der malignen Tumorzellen und pathogenen Erreger fähig sind und die Effluxpumpenaktivität der malignen Mdr-Tumorzellen und die Pgp-Resistenz von parasitären Zellen, Pilzen sowie von Bakterien bereits im ng/ml-Konzentrationsbereich stark inhibieren. Die neuen substituierten Disiloxane finden Verwendung als Zytostatika und in der Chemotherapie - auch in Kombination mit anderen Mitteln. Es ist überraschend, dass sie eine starke Chemosensitation der resistenten Mdr-Tumorzellen verursachen und ihre Effluxpumpenaktivität unterdrücken. Dadurch lässt sich die intrazelluläre Chemotherapeutikum-Konzentration so hoch ansetzen, dass kein Unterschied mehr im Vergleich mit parentalen Zellen nachgewiesen werden kann. Die als ALIS-Verbindungen bezeichneten erfindungsgemäßen Substanzen sind dadurch gekennzeichnet, dass sie biologisch wirksam sind und die Effluxpumpenaktivität der malignen Mdr-Tumorzellen, Pgp-Resistenz von parasitären Zellen, Pilzen und Bakterien bereits im ng/ml-Konzentrationsbereich stark inhibieren. Auch in höheren Konzentration wirken sie in vivo nicht toxisch. Nach dem Zell-Substanz-Kontakt sind sie sofort wirksam. Die ALIS-Verbindungen sind dadurch gekennzeichnet, dass sie hauptsächlich die Wirksamkeit der Chemotherapie erhöhen, aber auch allein zytostatisch wirken. Die Toxizität der neuen Verbindungen wurde im Maussytem getestet. Das Ergebnis war überraschend gut. Trotz zehnfacher Überdosierung konnte der ID-50 Wert nicht ermittelt werden, da die Mäuse die Behandlung 100%-ig überlebt haben und kein Gewichtsverlust auftrat. In manchen Fällen bekamen die Mäuse scheinbar sogar mehr Appetit. Alle Ergebnisse weisen darauf hin, dass die erfindungsgemäß bereitgestellten Verbindungen zum Einsatz in der Chemotherapie von Tumoren bzw. von Infektionskrankheiten geeignet sind. […]

Data set [2] relates to gp-170 positiv (EPG85-257RDB) Magencarcinomazellen. In words: In vitro proliferation inhibition (compound alone). Type of data set: cell-based. The procedure: as §1
The subject of a further data set is gp-170 Protein. As to the kind of experiment: Rhodamine-123 efflux pump inhibition assay (cell sorter fluorescence FL1). Type of data set: cell-based, Maus. The conditions noted are these: for 100%-ige Hemmungsbereich (concentration range giving 100% inhibition of the efflux pump): considerable variation between repeats. The procedure: 0,5 ml 2x10^6 /ml L-5178Y parental und Mdr Mauslymphomazellen wurden 10 Min. lang mit 40,0 200,0 und 1000 ng ALIS-409 inkubiert. Danach wurden die Zellen mit Rhodamin-123 Indikatorfarbstoff (Endkonzentration: 5,2 µMol) bei 37C° für 20 Min. inkubiert. Die Zellen wurden mit PBS gewaschen und die Fluoreszenz-Intensität (FL1) mittels Cellsorter gemessen. Die Intensität der unbehandelten parentalen Zellen entsprach der 100%igen Hemmung.
as §1
Die methodische Überprüfung war mit dem Beispiel 3 identisch. Auch die Inhibition der Effluxpumpenaktivitäten waren ähnlich groß. Im Konzentrationsbereich 200-500 ng/ml konnte eine 100%-ige Inhibition erreicht werden. […] Die schnelle Hemmung nach einer 10-minütigen Inkubatioszeit weist auf eine direkte Interaktion zwischen der Substanz und dem gp-170 Protein hin.

Data set [3] is described as follows: Water solubility (stated in heading).
The mark [4] stands for this setting: L-5178Y Mdr Mauslymphomazellen, 10 min incubation.

Structures can show the parent of a compound that is named as a salt.

Regarding `C[Si](CCCN1CCOCC1)(O[Si](C)(CCCN1CCOCC1)c1ccc(F)cc1)c1ccc(F)cc1` (centres unmarked) [ALIS-409, 1,3-Dimethyl-1,3-bis(4-fluorophenyl)-1,3-bis(3-morpholino-propyl)-disiloxan-dihydrochlorid], the “Einfluss auf die Mdr-Gen-Expression (Mdr RNA Synthese)” value in the data set on Mdr RNA Synthese is recorded as “kein Einfluss”. Also, the Gewichtsverlust entry in data set [1] (10,0 mg/kg) was “ohne Gewichtsverlust”. The survival in data set [1] came out at 100%. The inhibition at 0.1 µg/mL in data set [2] (100 ng/ml, EPG85-257RDB, read-out: Proliferationshemmung) stood at 41%. Moreover, in data set [2] (300 ng/ml, EPG85-257RDB, read-out: Proliferationshemmung), the inhibition at 0.3 µg/mL amounted to 74%. Moreover, the “Inhibition der Effluxpumpen” value with gp-170 Protein (40,0 ng/ml, L-5178Y Mdr Mauslymphomazellen, 10 min incubation, repeated independent experiments) is reported as 20-45%. Besides, in the data set on gp-170 Protein (setting [4]), the “100%-ige Hemmungsbereich (concentration range giving 100% inhibition of the efflux pump)” value was 300 to 800 ng/mL. In addition, the “Hemmung (Effluxpumpen)” value in the data set on gp-170 Protein (about 200,0 ng/ml, L-5178Y Mdr Mauslymphomazellen, 10 min incubation) stood at 80%. The Wasserlöslichkeit result in data set [3] is on record as “sehr gut wasserlöslich”.

With `CCCCN1CCN(CCC[Si](C)(O[Si](C)(CCCN2CCN(CCCC)CC2)c2ccc(F)cc2)c2ccc(F)cc2)CC1` (centres unmarked) [ALIS-421, 1,3-Dimethyl-1,3-bis(4-fluorophenyl)-1,3-bis{3-[1(4-butyl-piperazinyl)]-propyl}-disiloxan-tetrahydrochlorid], in the data set with Mdr RNA Synthese, the “Einfluss auf die Mdr-Gen-Expression (Mdr RNA Synthese)” value is “keinen Einfluss”. Further, in data set [1] (10,0 mg/kg), the Gewichtsverlust result was “ohne Gewichtsverlust” and the Toxizität result is given as “nicht toxisch”. Besides, the survival in data set [1] was found to be 100%. Besides, the “cancerostatischer Effekt allein” value in data set [2] (comparison in words) is on record as “schwächer als bei ALIS 409”. Also, the “100%-ige Hemmungsbereich (concentration range giving 100% inhibition of the efflux pump)” value in the data set on gp-170 Protein (setting [4]) was 200 to 500 ng/mL. In addition, the “Inhibition der Effluxpumpenaktivität (in words)” value in the data set with gp-170 Protein (Mdr tumour cells, qualitative statement) is “ähnlich groß”. For the same compound, in data set [3], the Wasserlöslichkeit result is listed as “sehr gut wasserlöslich”.
